# ChEMBL document CHEMBL5528025, “Design, synthesis and biological evaluation of carbamate derivatives incorporating multifunctional carrier scaffolds as pseudo-irreversible cholinesterase inhibitors for the treatment of Alzheimer's disease” (Eur J Med Chem, 2024)
# Active and inactive are the calls of the source. The calls are words filed in the database; no cut-off is given here.
# Legend:
# [1] = Cytotoxicity against rat PC-12 cells assessed as cell viability at 10 uM incubated for 24 hrs by CCK-8 assay relative to control; assay type: toxicity, cell-based; conditions: read-out: Activity
# Acetylcholinesterase [2] = target: T1, Acetylcholinesterase (Homo sapiens, UniProt P22303)
# Description: Inhibition of human erythrocyte AChE incubated for 10 mins
# Cholinesterase [3] = target: T2, Cholinesterase (Homo sapiens, UniProt P06276)
# Description: Inhibition of human serum BuChE using butyrylthiocholine iodide as substrate incubated for 10 mins followed by substrate addition and measured after 10 mins by DTNB reagent based Ellman's method
# BV-2 [4] = assay: Cytotoxicity against mouse BV-2 cells assessed as reduction in cell viability at 5 uM incubated for 24 hrs by CCK-8 assay; assay type: toxicity, cell-based; conditions: bv-2, 24 h
# BV-2 [5] = assay: Antineuroinflammatory activity in LPS-induced mouse BV-2 cells assessed as increase in IL-4 level at 1.25 to 5 uM incubated for 24 hrs by ELISA; assay type: functional, cell-based; conditions: dose 1.25-5 µM
# PC-12 [6] = assay: (§1) Neuroprotective activity against H2O2-induced rat PC-12 cells assessed as protection against H2O2-induced apoptosis by measuring live cells at 10 uM pretreated for 1 hr followed by H2O2 addition and measured after 24 hrs by Annexin V-FITC/PI staining based flow cytometry analysis (reference value: 63.2%); assay type: functional; conditions: time 25 hrs
# PC-12 [7] = assay: as §1, with “late apoptotic” for “live”, “7.97%)” for “63.2%)”; assay type: functional; conditions: time 25 hrs
# PC-12 [8] = assay: Inhibition of H2O2 induced ROS production in rat PC-12 cells assessed as reduction in intracellular ROS level at 10 uM pretreated for 1 hr followed by H2O2 stimulation and measured after 24 hrs by confocal microscopic analysis; assay type: functional, cell-based; conditions: time 25.0 hrs
# Acetylcholinesterase [9] = target: T1, Acetylcholinesterase; assay: Pseudo-irreversible inhibition of human erythrocyte AChE at 4 times IC50 preincubated for 20 mins followed by dialysis and measured after 12 hrs; assay type: cell-based
# Cholinesterase [10] = target: T2, Cholinesterase; assay: Pseudo-irreversible inhibition of human serum BuChE using butyrylthiocholine iodide as substrate at 4 times IC50 preincubated for 20 mins followed by dialysis and measured after 12 hrs by DTNB reagent based Ellman's method
# [11] = Acute toxicity in ICR mouse assessed as aberrant behavior at 100 to 500 mg/kg, ip measured after 14 days; assay type: organism-based; conditions: in vivo, 336 h, dose 100-500 mg/kg, time 14 day
# [12] = Acute toxicity in ICR mouse assessed as abnormal dietary patterns at 100 to 500 mg/kg, ip measured after 14 days; assay type: organism-based; conditions: in vivo, 336 h, dose 100-500 mg/kg, time 14 day
# [13] = Acute toxicity in ICR mouse assessed as reduction in body weight at 100 to 500 mg/kg, ip measured after 2 days; assay type: organism-based; conditions: in vivo, 48 h, dose 100-500 mg/kg, time 2 day
# [14] = Acute toxicity in ICR mouse assessed as histopathological change in heart at 100 to 500 mg/kg, ip measured after 14 days by H and E staining based analysis; assay type: organism-based; conditions: in vivo, 336 h, dose 100-500 mg/kg, time 14 day
# [15] = Acute toxicity in ICR mouse assessed as histopathological change in liver at 100 to 500 mg/kg, ip measured after 14 days by H and E staining based analysis; assay type: organism-based; conditions: in vivo, 336 h, dose 100-500 mg/kg, time 14 day
# [16] = Acute toxicity in ICR mouse assessed as histopathological change in spleen at 100 to 500 mg/kg, ip measured after 14 days by H and E staining based analysis; assay type: organism-based; conditions: in vivo, 336 h, dose 100-500 mg/kg, time 14 day
# [17] = Acute toxicity in ICR mouse assessed as histopathological change in brain at 100 to 500 mg/kg, ip measured after 14 days by H and E staining based analysis; assay type: organism-based; conditions: in vivo, 336 h, dose 100-500 mg/kg, time 14 day
# [18] = Hepatotoxicity in IG dosed ICR mouse measured after 48 hrs; assay type: toxicity, organism-based; conditions: in vivo, po
# Mus musculus [19] = assay: In vivo inhibition of AChE in scopolamine treated ICR mouse assessed as reduction in AChE level in brain at 5 to 20 mg/kg, ip preadministered with scopolamine for 7 days followed by compound administration and measured after 7 days; assay type: functional, organism-based; conditions: dose 5-20 mg/kg, time 7.0 day
# Mus musculus [20] = assay: In vivo inhibition of BuChE in scopolamine treated ICR mouse assessed as reduction in BuChE level in brain at 20 mg/kg, ip preadministered with scopolamine for 7 days followed by compound administration and measured after 7 days; assay type: functional, organism-based; conditions: time 7.0 day
# Mus musculus [21] = assay: Antialzheimer activity in ip dosed amyloid beta (1 to 42 residues) induced ICR mouse model assessed as reduction in learning deficits by measuring increase in alternation performance administered daily and measured on day 12 by Y-maze test; assay type: functional, organism-based; conditions: dose 5-20 mg/kg, time 12.0 day
# Mus musculus [22] = assay: Antialzheimer activity in amyloid beta (1 to 42 residues) induced ICR mouse model assessed as increase in step through latency at 5 to 20 mg/kg, ip administered daily and measured on day 18 and 19 by passive avoidance test; assay type: functional, organism-based; conditions: dose 5-20 mg/kg, time 18-19 day
# Mus musculus [23] = assay: Antialzheimer activity in amyloid beta (1 to 42 residues) induced ICR mouse model assessed as reduction in learning deficits by measuring reduction in latency at 5 to 20 mg/kg, ip administered daily and measured for 3 days by morris water maze test; assay type: functional, organism-based; conditions: dose 5-20 mg/kg, time 3.0 day
# Mus musculus [24] = assay: Antialzheimer activity in amyloid beta (1 to 42 residues) induced ICR mouse model assessed as reduction in learning deficits by measuring reduction in path search distance at 5 to 20 mg/kg, ip administered daily and measured on day 4 by morris water maze test; assay type: functional, organism-based; conditions: dose 5-20 mg/kg, time 4.0 day
# Mus musculus [25] = assay: Antialzheimer activity in amyloid beta (1 to 42 residues) induced ICR mouse model assessed as reduction in learning deficits by measuring increase in trajectory within target quadrant at 5 to 20 mg/kg, ip administered daily and measured after 13 to 17 days by morris water maze test; assay type: functional, organism-based; conditions: dose 5-20 mg/kg, time 13-17 day
# Mus musculus [26] = assay: Antialzheimer activity in amyloid beta (1 to 42 residues) induced ICR mouse model assessed as reduction in learning deficits by measuring increase in duration of time spent within target quadrant at 5 to 20 mg/kg, ip administered daily and measured after 13 to 17 days by morris water maze test; assay type: functional, organism-based; conditions: dose 5-20 mg/kg, time 13-17 day
# Mus musculus [27] = assay: Antialzheimer activity in amyloid beta (1 to 42 residues) induced ICR mouse model assessed as reduction in learning deficits by measuring increase in distance traveled within target quadrant at 5 to 20 mg/kg, ip administered daily and measured after 13 to 17 days by morris water maze test; assay type: functional, organism-based; conditions: dose 5-20 mg/kg, time 13-17 day
# Mus musculus [28] = assay: Antialzheimer activity in amyloid beta (1 to 42 residues) induced ICR mouse model assessed as reduction in nerve damage by measuring increase in live neurons in hippocampal CA1 region at 5 to 20 mg/kg, ip administered daily by nissl staining based fluorescence microscopy; assay type: functional, organism-based; conditions: dose 5-20 mg/kg
# Mus musculus [29] = assay: Antialzheimer activity in amyloid beta (1 to 42 residues) induced ICR mouse model assessed as reduction in nerve damage by measuring increase in live neurons in hippocampal CA3 region at 20 mg/kg, ip administered daily by nissl staining based fluorescence microscopy; assay type: functional, organism-based
# T2 sequence (P06276 whole entry): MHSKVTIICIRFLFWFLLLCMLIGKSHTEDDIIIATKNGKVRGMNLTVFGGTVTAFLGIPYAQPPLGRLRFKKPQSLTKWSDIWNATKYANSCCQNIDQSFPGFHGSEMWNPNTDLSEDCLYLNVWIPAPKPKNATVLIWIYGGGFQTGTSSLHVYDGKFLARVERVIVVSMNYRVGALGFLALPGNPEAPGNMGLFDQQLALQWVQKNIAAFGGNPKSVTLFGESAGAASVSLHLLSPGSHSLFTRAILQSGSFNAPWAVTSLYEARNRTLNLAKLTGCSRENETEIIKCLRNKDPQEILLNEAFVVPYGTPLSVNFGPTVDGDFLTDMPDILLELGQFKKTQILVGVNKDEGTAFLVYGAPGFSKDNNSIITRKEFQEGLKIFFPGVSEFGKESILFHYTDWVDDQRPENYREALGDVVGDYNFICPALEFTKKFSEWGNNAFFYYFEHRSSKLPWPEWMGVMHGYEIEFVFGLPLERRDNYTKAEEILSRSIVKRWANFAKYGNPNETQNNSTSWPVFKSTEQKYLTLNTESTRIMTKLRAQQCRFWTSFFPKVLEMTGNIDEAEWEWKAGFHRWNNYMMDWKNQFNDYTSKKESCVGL
# T1 sequence (P22303 whole entry): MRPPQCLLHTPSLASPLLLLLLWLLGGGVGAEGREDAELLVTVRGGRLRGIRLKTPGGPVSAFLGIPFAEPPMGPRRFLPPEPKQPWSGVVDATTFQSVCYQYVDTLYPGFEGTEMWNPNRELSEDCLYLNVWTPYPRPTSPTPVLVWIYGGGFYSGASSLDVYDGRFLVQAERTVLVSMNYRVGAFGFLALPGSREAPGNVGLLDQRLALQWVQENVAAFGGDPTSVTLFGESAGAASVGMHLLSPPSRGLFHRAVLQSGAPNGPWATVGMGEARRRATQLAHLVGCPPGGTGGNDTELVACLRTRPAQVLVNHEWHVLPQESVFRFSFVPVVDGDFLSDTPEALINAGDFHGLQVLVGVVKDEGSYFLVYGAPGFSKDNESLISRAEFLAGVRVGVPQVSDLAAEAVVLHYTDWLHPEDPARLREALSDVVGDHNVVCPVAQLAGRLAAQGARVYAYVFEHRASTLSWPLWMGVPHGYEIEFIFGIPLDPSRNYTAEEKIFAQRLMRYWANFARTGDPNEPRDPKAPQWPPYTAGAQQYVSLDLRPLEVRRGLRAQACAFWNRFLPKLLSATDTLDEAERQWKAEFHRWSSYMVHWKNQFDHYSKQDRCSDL
compound,measurement,setting,value
O=C(NCCCNc1c2c(nc3ccccc13)CCCC2)Oc1ccc(-c2cc3cccnc3[nH]2)cc1,"viability at 24 h, 10 µM",[1],> 90%
same,IC50,Acetylcholinesterase [2],0.233 µM
same,IC50,Cholinesterase [3],0.0161 µM
C[C@@H](c1cccc(OC(=O)NCCCCCCNc2c3c(nc4ccccc24)CCCC3)c1)N(C)C,IC50,Acetylcholinesterase [2],0.119 µM
same,IC50,Cholinesterase [3],0.0148 µM
C[C@@H](c1cccc(OC(=O)NCCCCCCNc2c3c(nc4cc(Cl)ccc24)CCCC3)c1)N(C)C,IC50,Acetylcholinesterase [2],0.0256 µM
same,IC50,Cholinesterase [3],0.0928 µM
C[C@@H](c1cccc(OC(=O)NCCCCNc2c3c(nc4ccccc24)CCCC3)c1)N(C)C,IC50,Acetylcholinesterase [2],0.292 µM
same,IC50,Cholinesterase [3],0.0435 µM
O=C(NCCCCCCNc1c2c(nc3cc(Cl)ccc13)CCCC2)Oc1ccc(-c2cc3cccnc3[nH]2)cc1,IC50,Acetylcholinesterase [2],0.0647 µM
same,IC50,Cholinesterase [3],0.28 µM
C[C@@H](c1cccc(OC(=O)NCCCNc2c3c(nc4ccccc24)CCCC3)c1)N(C)C,IC50,Acetylcholinesterase [2],0.385 µM
same,IC50,Cholinesterase [3],0.0232 µM
O=C(NCCNc1c2c(nc3ccccc13)CCCC2)Oc1ccc2cc[nH]c2c1,IC50,Acetylcholinesterase [2],1.25 µM
same,IC50,Cholinesterase [3],0.00037 µM
O=C(NCCCCCNc1c2c(nc3cc(Br)ccc13)CCCC2)Oc1ccc2cc[nH]c2c1,IC50,Acetylcholinesterase [2],0.317 µM
same,IC50,Cholinesterase [3],0.0431 µM
O=C(NCCCCCNc1c2c(nc3ccccc13)CCCC2)Oc1ccc(-c2cc3cccnc3[nH]2)cc1,IC50,Acetylcholinesterase [2],0.153 µM
same,IC50,Cholinesterase [3],0.0212 µM
C[C@@H](c1cccc(OC(=O)NCCCCCNc2c3c(nc4ccccc24)CCCC3)c1)N(C)C,IC50,Acetylcholinesterase [2],0.117 µM
same,IC50,Cholinesterase [3],0.012 µM
O=C(NCCCCCCNc1c2c(nc3cc(F)ccc13)CCCC2)Oc1ccc2cc[nH]c2c1,IC50,Acetylcholinesterase [2],0.297 µM
same,IC50,Cholinesterase [3],0.0431 µM
C[C@@H](c1cccc(OC(=O)NCCCCCNc2c3c(nc4cc(F)ccc24)CCCC3)c1)N(C)C,IC50,Acetylcholinesterase [2],0.0378 µM
same,IC50,Cholinesterase [3],0.137 µM
O=C(NCCCCCCNc1c2c(nc3ccccc13)CCCC2)Oc1ccc(-c2cc3cccnc3[nH]2)cc1,IC50,Acetylcholinesterase [2],0.0213 µM
same,IC50,Cholinesterase [3],0.0183 µM
O=C(NCCCCCNc1c2c(nc3ccccc13)CCCC2)Oc1ccc2cc[nH]c2c1,IC50,Acetylcholinesterase [2],0.421 µM
same,IC50,Cholinesterase [3],0.0233 µM
O=C(NCCCCCCNc1c2c(nc3cc(Br)ccc13)CCCC2)Oc1ccc(-c2cc3cccnc3[nH]2)cc1,IC50,Acetylcholinesterase [2],0.055 µM
same,IC50,Cholinesterase [3],0.556 µM
O=C(NCCCCCCNc1c2c(nc3cc(Br)ccc13)CCCC2)Oc1ccc2cc[nH]c2c1,IC50,Acetylcholinesterase [2],0.113 µM
same,IC50,Cholinesterase [3],0.0579 µM
O=C(NCCNc1c2c(nc3ccccc13)CCCC2)Oc1ccc(-c2cc3cccnc3[nH]2)cc1,IC50,Acetylcholinesterase [2],> 10 µM
same,IC50,Cholinesterase [3],0.0522 µM
O=C(NCCCCCCNc1c2c(nc3cc(F)ccc13)CCCC2)Oc1ccc(-c2cc3cccnc3[nH]2)cc1,"viability at 24 h, 10 µM",[1],> 90%
same,Activity,BV-2 [4],Non-Toxic
same,Activity,BV-2 [5],Active
same,Activity,PC-12 [6],81.3%
same,Activity,PC-12 [7],5.8%
same,inhibition,PC-12 [8],Active
same,inhibition,Acetylcholinesterase [9],Active
same,inhibition,Cholinesterase [10],Active
same,Activity,[11],Non-Toxic
same,Activity,[12],Non-Toxic
same,Activity,[13],Toxic
same,Activity,[14],Non-Toxic
same,Activity,[15],Non-Toxic
same,Activity,[16],Non-Toxic
same,Activity,[17],Non-Toxic
same,LD50 at 48 h,[18],> 500 mg/kg
same,inhibition,Mus musculus [19],Active
same,inhibition,Mus musculus [20],Active
same,Activity,Mus musculus [21],Dose-Dependent Effect
same,Activity,Mus musculus [22],Active
same,Activity,Mus musculus [23],Active
same,Activity,Mus musculus [24],Active
same,Activity,Mus musculus [25],Active
same,Activity,Mus musculus [26],Active
same,Activity,Mus musculus [27],Active
same,Activity,Mus musculus [28],Active
same,Activity,Mus musculus [29],Active
same,IC50,Acetylcholinesterase [2],0.0304 µM
same,IC50,Cholinesterase [3],0.048 µM
